Measurements: patent US7595300B2, “7-quinolyl ketolide antibacterial agents” (priority 2005, dated 2009)
Converted amounts (≈) assume the structure as drawn. Where two headings read alike, the source gives them in different places.

Tests used:
anesthetized rats = assay: Cardiovascular safety, QT interval in anesthetized rats, i.v. bolus; format: in vivo, rat; conditions: for QT prolongation (% above vehicle): anesthetized rat, incremental i.v. bolus doses 0.47 to 15 mg/kg
Description: (§1) Total doses of drug (0.47, 0.94, 1.88, 3.75, 7.5, and 15 mg/kg) or equivalent volumes of vehicle were administered incrementally as an i.v. bolus to groups of 6 anesthetized rats or guinea pigs at 0, 15, 30, 45, 60, and 75 minutes. Hemodynamic parameters including mean arterial pressure (MAP) and heart rate (HR), and ECG parameters (QT and PR intervals and QRS duration) were recorded. For the rat, injection of vehicle gave a 16% increase in QT interval over baseline. For the guinea pig, injection of vehicle gave a 3% increase in QT interval over baseline.

anesthetized guinea pigs = assay: Cardiovascular safety, QTc interval in anesthetized guinea pigs, i.v. bolus; format: in vivo, guinea pig; conditions: for QTc prolongation (% above vehicle): anesthetized guinea pig, incremental i.v. bolus doses 0.47 to 15 mg/kg
Description: as §1

[1] = Pharmacokinetics in the mouse, plasma and lung tissue; format: in vivo; conditions: oral gavage 10 mg/kg; for Lung AUC / Lung Cmax: mouse lung tissue
Description: The pharmacokinetics of compounds of formula (VIII) and compounds of formula (II) and (III) were measured in the mouse. Compounds were administered either intravenously (i.v.) at 1 mg/kg, or per oral gavage (p.o.) at 10 mg/kg. Plasma samples were taken and analyzed by LC/MS-MS. For lung tissue pharmacokinetics, lungs were removed and homogenized, followed by analyzis by LC/MS-MS.

dog = assay: Safety of intravenous dosing in dog models; conditions: intravenous 9 mg/kg
Haemophilus influenzae = assay: MIC, NCCLS broth microdilution, respiratory pathogens; format: cell-based; conditions: H. influenzae
Description: (§2) Minimum inhibitory concentrations (“MICs”) were determined by the NCCLS broth microdilution procedure for susceptibility testing for bacteria that grow aerobically (National Committee for Clinical Laboratory Standards, 1997. Methods for dilution antimicrobial susceptibility tests for bacteria that grow aerobically, 4th ed. Approved standard. NCCLS Document M7-A4. National Committee for Clinical Laboratory Standards, Villanova, Pa.). Stock solutions were prepared on the day of the test and appropriate aliquots were added to cation adjusted Mueller-Hinton broth (CAMHB, DIFCO) or Haemophilus test media. Two-fold serial dilutions were prepared and added to wells in microtiter plates. Final test concentrations ranged from 8 to 0.004 ug/ml. Broth cultures of bacteria inoculated from growth on overnight plates for all test bacteria except Streptococcus pneumoniae and Haemophilus influenzae were incubated at 35° C. and then adjusted to the Kirby Bauer standard and diluted in CAMHB to achieve a final inoculum concentration of approximately 5×10^5 CFU/ml. Inocula for S. pneumoniae and H. influenzae were prepared by directly suspending colonies from an overnight plate, adjusting the turbidity and diluting as above. S. pneumoniae media was supplemented with 3% lysed horse blood. All plates were incubated in ambient air at 35° C. for 20-24 h for S. pneumoniae and Haemophilus influenzae and 16-20 h for all other bacteria.

M. catarrhalis = assay: as above; format: cell-based; conditions: Moraxella catarrhalis
Description: as §2

S. pyogenes = assay: as above; format: cell-based; conditions: Streptococcus pyogenes
Description: as §2

Streptococcus pneumoniae = assay: as above; format: cell-based; conditions: S. pneumoniae
Description: as §2

[2] = test system: Streptococcus pneumoniae ATCC 6303; assay: rat lower respiratory tract infection (lung pneumonia) model; format: in vivo; conditions: for Log CFU/g (avg, n = 8): rat lungs, 12 hours after the last dose
Description: The in vivo efficacy of compounds (II) and (III) were evaluated in a rat lower respiratory tract infection model. Groups of 8 rats were infected intratracheally with 0.5 mL containing 10^6 CFUs of Streptococcus pneumoniae ATCC 6303 in 5% hog gastric mucin. Compounds dissolved in ethanol were administered by oral gavage daily over 3 days starting 18 hours post-inoculation. Lungs were aseptically removed from survivors 12 hours after the last dose and examined for visible signs of infection, then homogenized in sterile PBS and plated for determination of CFUs by log plating on Columbia agar-nalidixic acid plates.

male beagle dogs = assay: Cardiovascular safety in telemetered dogs, intravenous infusion; format: in vivo, dog
Description: Four male beagle dogs, obtained from Marshall Farms USA, Inc. (North Rose, N.Y.), were surgically instrumented with telemetry transducers (Data Sciences International, type RL11M2-D70-PCT) to assess arterial blood pressure (ABP) and lead II electrocardiogram (ECG) parameters.
The dosing route was an intravenous infusion jugular vein access). The infusion was accomplished using a CADD Prizm® ambulatory infusion pump attached to a jacket worn by the dog. The dose duration for the intravenous infusion was 30 min for all doses administered, except the last dose (30 mg/kg) where the infusion period was extended to 45 min to accommodate the larger dose volume required for this dose. The vehicle dose and diluent for the test article was 0.05-M sodium citrate in sterile water for injection.
There was one treatment group of four non-naïve dogs and the study was comprised of both pharmacokinetic and telemetry phases, as summarized in the dose administration table for compound (III) (Table 16) below. At least one week was given between dosings to allow clearance of the drug.
For the telemetry phase of the study, collection of hemodynamic and lead II ECG data commenced approximately 30 min prior to dosing and ended approximately 6 h post-dose. Systolic blood pressure (SBP), diastolic blood pressure (DBP), HR, and lead II ECG variables (PR interval, QRS duration, RR interval, and QT interval) were acquired continuously from each animal during each dose day recording session. The QT interval was corrected for variations in HR using the Fridericia's QTc interval (QTcF).
Data acquired following treatment with vehicle or compound (III) were extracted at −10, −5, 0, 10, 20, 30, 35, 45, 60, 90, 150, 270, and 390 min relative to the start dose time. For all blood pressure and ECG parameters, data following treatment with compound (III) were compared to the time-matched vehicle dose data. Statistical comparisons were made using a one-way ANOVA for repeated measures, followed by the Dunnett's post-hoc test when statistical significance was detected with the ANOVA. Changes were considered statistically significant when p<0.05.
A complete visual scan of the ECG waveforms from the vehicle, 11 mg/kg dose, and 15 mg/kg dose of compound (III) was conducted. All waveforms were examined for gross changes in waveform morphology and arrhythmogenesis.

human hepG2 hepatocytes = assay: In vitro hepatotoxicity, resazurin and Nile Red staining; format: cell-based; conditions: 100 μM
Description: In one experiment, hepatotoxicity was estimated by overnight incubation of compounds at 3, 10, 30, 100, or 300 μM with cultured rat or human hepG2 hepatocytes, followed by staining of the cells with resazurin to measure viability or with Nile Red to measure steatosis. The minimal drug concentration at which changes in dye binding were observed was noted as the minimal effective concentration. The compound of formula (VIII) wherein Z=3-quinolyl affected […] and steatosis in human HepG2 hepatocytes at 30 μM.

[3] = genotype sensitive, read-out: MIC50
[4] = genotype sensitive, read-out: MIC90

CC1CC(N(C)C)C(O)C(O[C@@H]2[C@@H](C)C(=O)[C@](C)(F)C(=O)O[C@H](CCF)[C@@]3(C)OC(=O)N[C@@H]3[C@@H](C)C(=O)[C@H](C)C[C@@]2(C)OC/C=C/c2ccc3nccnc3c2)O1 (stereo partly shown) [H]
QT prolongation (% above vehicle) (anesthetized rats): 15 % above vehicle | QTc prolongation (% above vehicle) (anesthetized guinea pigs): 4 % above vehicle | Lung AUC [1]: 11.0 ug/mL-h | Lung Cmax [1]: 3.0 µg/mL | Plasma AUC ([1]; mouse plasma): 2.1 ug/mL-h | Plasma Cmax ([1]; mouse plasma): 0.67 µg/mL | toxicity, severe clinical effects upon intravenous dosing (dog): extremely toxic

CC1CC(N(C)C)C(O)C(O[C@@H]2[C@@H](C)C(=O)[C@@H](C)C(=O)O[C@H](CCF)[C@@]3(C)OC(=O)N[C@@H]3[C@@H](C)C(=O)[C@H](C)C[C@@]2(C)OC/C=C/c2ccc3cccnc3c2)O1 (stereo partly shown) [Compound (II), 6-O-(1-(7-quinolyl)-3-propenyl)-11-amino-11-deoxy-3-(descladinosyl)-3-oxo-15-fluoroerythromycin A-11,12-cyclic carbamate]
MIC50 (Haemophilus influenzae; resistant): > 8 µg/mL | MIC90 (Haemophilus influenzae; resistant): > 8 µg/mL | MIC50 (Haemophilus influenzae; sensitive): 2 µg/mL (≈ 2.55 µM) | MIC90 (Haemophilus influenzae; sensitive): 4 µg/mL (≈ 5.1 µM) | MIC50 (M. catarrhalis): 0.12 µg/mL (≈ 0.153 µM) | MIC90 (M. catarrhalis): 0.12 µg/mL (≈ 0.153 µM) | MIC50 (S. pyogenes; genotype ermB): 0.12 µg/mL (≈ 0.153 µM) | MIC90 (S. pyogenes; genotype ermB): 1 µg/mL (≈ 1.28 µM) | MIC50 (S. pyogenes; genotype mef, read-out: MIC50): 0.12 µg/mL (≈ 0.153 µM) | MIC90 (S. pyogenes; genotype mef, read-out: MIC90): 0.25 µg/mL (≈ 0.319 µM) | MIC50 (S. pyogenes; [3]): 0.03 µg/mL (≈ 0.0383 µM) | MIC90 (S. pyogenes; [4]): 0.03 µg/mL (≈ 0.0383 µM) | MIC50 (Streptococcus pneumoniae; 20 h, genotype ermB + mef): 1 µg/mL | MIC50 (Streptococcus pneumoniae; genotype ermB): 0.12 µg/mL (≈ 0.153 µM) | MIC90 (Streptococcus pneumoniae; genotype ermB): 0.12 µg/mL (≈ 0.153 µM) | MIC90 (Streptococcus pneumoniae; genotype ermB + mef): 2 µg/mL | MIC50 (Streptococcus pneumoniae; genotype mef, read-out: MIC50): 0.25 µg/mL (≈ 0.319 µM) | MIC90 (Streptococcus pneumoniae; genotype mef, read-out: MIC90): 0.25 µg/mL (≈ 0.319 µM) | MIC50 (Streptococcus pneumoniae; [3]): 0.03 µg/mL (≈ 0.0383 µM) | MIC90 (Streptococcus pneumoniae; [4]): 0.03 µg/mL (≈ 0.0383 µM) | Log CFU/g (avg, n = 8) ([2]; 0.5 mg/kg oral gavage daily over 3 days): 4.8 Log CFU/g | Log CFU/g (avg, n = 8) ([2]; 2.5 mg/kg oral gavage daily over 3 days): 4.3 Log CFU/g | % survivors ([2]; rat, 0.5 mg/kg oral gavage daily over 3 days): 78% | % survivors ([2]; rat, 2.5 mg/kg oral gavage daily over 3 days): 88% | reducing the bacterial load in the rat lungs and increasing survival relative to control animals ([2]; rat, oral gavage daily over 3 days): efficacious | QT prolongation (% above vehicle) (anesthetized rats): −4 % above vehicle | effect on the QT interval in the rat (anesthetized rats; rat): did not prolong the QT interval | QTc prolongation (% above vehicle) (anesthetized guinea pigs): 1 % above vehicle | effect on the QTc interval in the anesthetized guinea pig (anesthetized guinea pigs; guinea pig, cumulative doses up to 30 mg/kg, relative to vehicle controls): no statistically significant effects | heart rate-corrected QT interval (QTc), FIG. 5 (male beagle dogs; male beagle dogs, intravenous infusion 15 mg/kg over 30 minutes): No significant increase in QTc | effects on cardiac parameters, including QT interval (male beagle dogs; telemetered dogs, intravenous infusion up to 15 mg/kg): no effects | effects on metabolic stability and steatosis (human hepG2 hepatocytes): No effects | Lung AUC [1]: 1.42 ug/mL-h | Lung Cmax [1]: 0.26 µg/mL | AUC ([1]; mouse plasma): 890 ng·h/mL | Cmax ([1]; mouse plasma): 260 ng/mL
